In assay [1] the test system is human gastric cancer MKN45 cells. The assay is described as follows: MKN45 orthotopic xenograft (metastasis). The assay is classed as in vivo, mouse. The conditions noted are these: 5-FU group, dose not given. From the text: For the MKN45 orthotopic xenograft experiment, human gastric cancer MKN45 cells (Japanese Cancer Research Bank, JCRB, Tokyo, Japan) were inoculated into donor BALB/C nude mice. When the tumor size reached the size of 600-800 mm3, the donor mice were euthanized, and the tumor was excised through sterile surgical procedure. The tumors were cut into fragments the size of 1×1×1 mm and implanted into the wall of great gastric curvature of recipient mice through sterile surgery under isoflurane anesthesia. 7 days after the surgery, recipient mice with orthotopic tumors were randomized into groups according to body weight and dosing was commenced. huAbF46-H4-A1 (IgG2 Fc) was injected into a vein once a week for 9 weeks. At the end of the in vivo study, orthotopic tumor weight was recorded and metastasis to the other organ was checked by macroscopic examination.

In assay [2] the test system is breast cancer cell line HCC1806. The assay is described as follows: Combination cell viability CTG assay, HCC1806. The conditions noted are these: HCC1806, 72 hours, FIG. 17. The class given is cell-based. As for the experimental part:
(§1) Cell proliferation in response to antibody treatment in vitro was assessed by a CTG (Promega) assay according to manufacturer's instructions. EBC1, HT-29, BT-474, HCC1806, HCC1954 and MKN45 cells were respectively plated at a density of 5×10^3 cells per well in FBS 10% (v/v) RPMI 1640 medium (Gibco) onto a 96-well plate (BD). The HT-29 (HTB-38), BT-474 (HTB-20), HCC1806 (CRL-2335) and HCC1954 (CRL-2338) cell lines were all purchased from ATCC. MKN45 (JCRB0254) and EBC1 (JCRB0820) cell lines were purchased from the Health Science Research Resource Bank. After 24 hours incubation, the c-Met targeting antibody huAbF46-H4-A1 (IgG2 Fc) was added alone or in combination with another drug (lapatinib, regorafenib or vemurafenib) diluted in 10% FBS (v/v) RPMI medium. Lapatinib, regorafenib and vemurafenib were purchased from Selleck Chemicals.
(§2) After 72 hours incubation, 100 μL of the CTG reagent (Promega) was added to each well followed by incubation at 37° C. for 30 minutes. The luminescence was measured using an Envision Multilabel Plate Reader (Perkin Elmer).

In assay [3] the test system is breast cancer cell line BT-474. Briefly: Combination cell viability CTG assay, BT-474. The class given is cell-based. Conditions: BT-474, 72 hours. The procedure:
as §1
For the combination treatment of each experiment, IC20 concentration of one drug (drug A) and differing amounts of the other drug (drug B) were treated to see if the efficacy of drug B is improved by combi-treatment with drug A in a dose-dependent manner (see FIGS. 16-22). After 72 hours incubation, 100 μL of the CTG reagent (Promega) was added to each well followed by incubation at 37° C. for 30 minutes. The luminescence was measured using an Envision Multilabel Plate Reader (Perkin Elmer).

The test system of assay [4] is breast cancer cell line HCC1954. Briefly: Combination cell viability CTG assay, HCC1954. The class given is cell-based. Conditions: HCC1954, 72 hours, FIG. 18. The procedure: as §1, §2
Assay [5] concerns colorectal cancer cell line HT29. The assay is described as follows: Combination cell viability CTG assay, HT29. The class given is cell-based. The conditions noted are these: HT29, 72 hours, FIG. 19. As for the experimental part:
as §1, §2

The test system of assay [6] is MHCC97H (human liver cancer cell line). The assay is described as follows: MHCC97H xenograft model. Conditions: 30 mg/kg p.o. q.d. x 4 weeks. The class given is in vivo, mouse. As for the experimental part: The antitumor activity of huAbF46-H4-A1 (IgG2 Fc) was evaluated in a BALB/C nude mouse MHCC97H (human liver cancer cell line) xenograft model (referring to Example 16.2). Approximately 3 million MHCC97H cells in 100 μL of serum-free media were injected via s.c. to each of the 140 mice under anesthesia by 1-2% isoflurane. Ten days after subcutaneous inoculation with MHCC97H tumor cells, dosing commenced in the following treatment groups: 0 (PBS vehicle), 0.2, 1, 5 or 10 mg/kg huAbF46-H4-A1 (IgG2 Fc) i.v., q.w.×4 weeks; 30 mg/kg sorafenib p.o., q.d.×4 weeks (positive control). Each group consisted of 15 mice. Tumor volumes and body weights were measured two to three times a week for total study period about 4 weeks. The tumor volume (V) was calculated as follows: V (mm^3)={long axis length (mm)×(short axis length (mm))^2}/2.

On to `O=c1[nH]cc(F)c(=O)[nH]1` [Antibody 5-FU, 5-FU, reference compound], for which, in assay [1], the “Number of metastasis lesion” value worked out at 0.

`CS(=O)(=O)CCNCc1ccc(-c2ccc3ncnc(Nc4ccc(OCc5cccc(F)c5)c(Cl)c4)c3c2)o1` [lapatinib]: the “anti-tumor efficacy (cell viability) when co-treated with huAbF46-H4-A1 (IgG2 Fc)” value in assay [2], in assay [3] (FIG. 16), in assay [4] and in assay [5] was “significantly improved” each time.

As for `CNC(=O)c1cc(Oc2ccc(NC(=O)Nc3ccc(Cl)c(C(F)(F)F)c3)c(F)c2)ccn1` [regorafenib], the “anti-tumor efficacy (cell viability) when co-treated with huAbF46-H4-A1 (IgG2 Fc)” value in assay [3] (FIG. 20) was “significantly improved”.

For `CNC(=O)c1cc(Oc2ccc(NC(=O)Nc3ccc(Cl)c(C(F)(F)F)c3)cc2)ccn1` [sorafenib, reference compound], the tumor growth result in assay [6] was “significant inhibition of MHCC97H tumor growth”.

The values are drawn from patent publication US9717715B2, “Method of combination therapy using an anti-C-Met antibody” (Samsung Electronics Co., Ltd., priority 2013, dated 2017).
